{
  "source": "patent EP0133934A2",
  "about": "“Pharmacologically active 1,3,4-thiadiazol-(3,2-a)-thieno-(2,3-d)-pyrimidin-5-(H)one derivatives” (NIKEPHARMA S.r.l., priority 1983, dated 1985)",
  "key": {"gastric ulceration": {"test_system": "gastric ulceration", "type": "in vivo, rat", "settings": "os", "experimental": "To rats fasted for 18 hours, with water ad libitum, were administered the compounds under test at \"0\" time and after 2 hours. Control rats were treated with established anti-inflammatory agents.\n6 Hours after the beginning of the test, the animals were killed by ether inhalation.\nGastric ulceration was assessed on the ground of values ranging from 0 to 4: • 0 = no ulceration; • 1 = slight iperhaemia and/or a few ulcers; • 2 = severe iperhaemia and many punctiform ulcers; • 3 = severe submucosal hemorrage, one large ulcer and many punctiform ulcers; • 4 severe submucosal hemorrage and many large ulcers.\nThe ulcerogenic index was measured by the following formula (Lwoff. J.M., J. Pharmacol., 2, 81, 1971): [formula]"}, "[1]": {"test_system": "phenylbenzoquinone writhing test", "test": "Phenylbenzoquinone writhing test in the mouse (ED50 and duration of effect)", "type": "in vivo", "settings": "for % INHI-BITION / N° OF WRITHES IN 10' ml ± E.S.: Table 6, oral, one hour before the test; for N° OF WRITHES IN 10' ml ± E.S.: controls 52.4 ± 1.69; for % INHIBITION / Nº OF WRITHES IN 10' ml ± E.S.: Table 7, oral 1 mg/kg; for Nº OF WRITHES IN 10' ml ± E.S.: controls 53.2 ± 1.26", "experimental": "The analgesic effect was determined by the number of writhes of the abdomen recorded during 10 minutes (from 5 to 15 minutes after the phenylbenzo quinone injection)."}, "[2]": {"test_system": "Writhing test induced by phenyl-benzoquinone", "test": "Phenylbenzoquinone writhing test in the rat", "type": "in vivo", "settings": "Rattus norvegicus, po, 10 min, read-out: % INHIBI-TION", "experimental": "(§1) The activity tests were carried out on male Spra gue-Dawley rats weighing 200+20 g and on male Swiss mice weighing 26+3 g.\n(§2) The test compounds were administered orally by means of gastroesophageal tube, in the form of a suspen sion in a 10 ml/kg mucilage of 5% gum arabic; and intraperitoneally in the form of an aqueous suspen sion added with a few drops of Tween 80, in the con stant volume of 10 ml/kg."}, "carrageenin oedema": {"test_system": "carrageenin oedema", "test": "Antiinflammatory activity: carrageenin oedema in the rat", "type": "in vivo", "settings": "po, 4 h, read-out: OEDEMA INHIBITION % at the fourth hour", "experimental": "as §1, §2\nThe compounds under test and the control ones were administered orally one hour before the injection of 0.1 ml of 1% carrageenin in the right paw of the animals.\nThe volume of the paw was measured by means of a plethysmograph immediately before the injection and 2, 4 and 6 hours after.\nThe results were expressed as percentage inhibi tion of the oedema in the treated animals in comparison with the control animals, at the time of the maximum oedema development (fourth hour after the carrageenin injection)."}, "acetic acid peritonitis": {"test_system": "acetic acid peritonitis", "test": "Anti-exudative activity: acetic acid peritonitis in the rat", "type": "in vivo", "settings": "for EXUDATE VOLUME ml ± E.S.: controls 2.58 ± 0.18", "experimental": "The test was carried out according to the procedure described by Arrigoni-Martelli (Boll.Chim. Far. 107, 29, 1968). This method is based upon the evaluation of the anti-exudative effect of a drug at the peritoneal level, following a intraperitoneal injection of 10 ml/kg of a 0.5% acetic acid solution.\nThe compounds under test were administered oral ly one hour before the inflammatory agent; 30 minutes after the treatment the animals were killed and the fluid from the peritoneal cavity was drawn and measured.\nThe test compounds were administered by oral route 1 hour before intraperitoneal injection of acetic acid (10 ml/kg of a 0.5% solution).\nThe anti-exudative activity was determined on the basis of the peritoneal exudate of the treated animals, in comparison with the controls."}, "Carrageenin pleuritis": {"test_system": "Carrageenin pleuritis", "test": "Carrageenin pleuritis in the rat", "type": "in vivo", "settings": "for EXUDATE VOLUME: 30 min. before carrageenin and 6 hours after, exudate at 18 hours, controls 2.76 ± 0.38", "experimental": "Compound HA-34 was tested for the protective activity against the exudative pleuritis reaction induced by carrageenin. HA-34 was administered 30 min. before the injection of carrageenin, and 6 hours after it. The experiment was carried out on male Spra- gue-Dawley rats, anestethized with ethyl urethane, which were subjected, in their right pleural cavity, to injection of 1.5 ml of air and then 0.1 ml of a 1% carrageenin solution, in sterile normal saline, according to the procedure by Van Armann et al. (J. Pharmac. Exp. Ther., 150, 328, 1965). Indometha cin and Piroxicam were employed as the control drugs, under the same conditions. 18 Hours after the intrapleuric carrageenin injec tion, the animals were killed by means of ether inhalation, and the pleuric exudate was collected and measured."}, "[3]": {"settings": "30 min. before phenylbenzoquinone"}},
  "data": [
    {"smiles": "COc1ccc2c(c1)c(CC(=O)O)c(C)n2C(=O)c1ccc(Cl)cc1", "note": "[INDO, Indomethacin]", "values": [
      {"measurement": "ULCERA-TION INDEX", "setting": "gastric ulceration", "value": 250},
      {"measurement": "% ANIMALS WITH ULCERS", "setting": "gastric ulceration; 20 mg/kg", "value": 100, "unit": "%"},
      {"measurement": "ULCERA-TION DEGREE", "setting": "gastric ulceration; 20 mg/kg, scale 0 to 4", "value": 2.5},
      {"measurement": "ED50", "setting": "[1]; Mus musculus, po, 1 h", "value": 0.5, "unit": "mg/kg"},
      {"measurement": "% INHI-BITION", "setting": "[1]; 0.1 mg/kg", "value": 22.9, "unit": "%"},
      {"measurement": "N° OF WRITHES IN 10' ml ± E.S.", "setting": "[1]; 0.1 mg/kg", "value": "40.4 ± 2.46"},
      {"measurement": "% INHI-BITION", "setting": "[1]; 0.5 mg/kg", "value": 48.1, "unit": "%"},
      {"measurement": "N° OF WRITHES IN 10' ml ± E.S.", "setting": "[1]; 0.5 mg/kg", "value": "27.2 ± 1.48"},
      {"measurement": "% INHI-BITION", "setting": "[1]; 1 mg/kg", "value": 87.0, "unit": "%"},
      {"measurement": "N° OF WRITHES IN 10' ml ± E.S.", "setting": "[1]; 1 mg/kg", "value": "6.8 ± 0.76"},
      {"measurement": "% INHI-BITION", "setting": "[1]; 5 mg/kg", "value": 91.4, "unit": "%"},
      {"measurement": "N° OF WRITHES IN 10' ml ± E.S.", "setting": "[1]; 5 mg/kg", "value": "4.5 ± 0.65"},
      {"measurement": "% INHIBITION", "setting": "[1]; [3]", "value": 85.5, "unit": "%"},
      {"measurement": "Nº OF WRITHES IN 10' ml ± E.S.", "setting": "[1]; [3]", "value": "7.7 ± 1.18"},
      {"measurement": "% INHIBITION", "setting": "[1]; 1 h before phenylbenzoquinone", "value": 87.8, "unit": "%"},
      {"measurement": "Nº OF WRITHES IN 10' ml ± E.S.", "setting": "[1]; 1 h before phenylbenzoquinone", "value": "6.5 ± 0.86"},
      {"measurement": "% INHIBITION", "setting": "[1]; 3 h before phenylbenzoquinone", "value": 88.3, "unit": "%"},
      {"measurement": "Nº OF WRITHES IN 10' ml ± E.S.", "setting": "[1]; 3 h before phenylbenzoquinone", "value": "6.2 ± 0.70"},
      {"measurement": "% INHIBITION", "setting": "[1]; 4 h before phenylbenzoquinone", "value": 87.2, "unit": "%"},
      {"measurement": "Nº OF WRITHES IN 10' ml ± E.S.", "setting": "[1]; 4 h before phenylbenzoquinone", "value": "6.8 ± 0.64"},
      {"measurement": "% INHIBITION", "setting": "[1]; 6 h before phenylbenzoquinone", "value": 80.4, "unit": "%"},
      {"measurement": "Nº OF WRITHES IN 10' ml ± E.S.", "setting": "[1]; 6 h before phenylbenzoquinone", "value": "10.4 ± 0.56"},
      {"measurement": "% INHIBITION", "setting": "[1]; 8 h before phenylbenzoquinone", "value": 60.3, "unit": "%"},
      {"measurement": "Nº OF WRITHES IN 10' ml ± E.S.", "setting": "[1]; 8 h before phenylbenzoquinone", "value": "21.2 ± 1.26"},
      {"measurement": "% INHIBITION", "setting": "[1]; 24 h before phenylbenzoquinone", "value": 53.4, "unit": "%"},
      {"measurement": "Nº OF WRITHES IN 10' ml ± E.S.", "setting": "[1]; 24 h before phenylbenzoquinone", "value": "24.8 ± 1.15"},
      {"measurement": "% INHIBITION", "setting": "[1]; 32 h before phenylbenzoquinone", "value": 25.9, "unit": "%"},
      {"measurement": "Nº OF WRITHES IN 10' ml ± E.S.", "setting": "[1]; 32 h before phenylbenzoquinone", "value": "39.4 ± 1.36"},
      {"measurement": "inhibition in vivo at 0.5 mg/kg", "setting": "[2]", "value": 49, "unit": "%"},
      {"measurement": "inhibition in vivo at 5 mg/kg", "setting": "[2]", "value": 87, "unit": "%"},
      {"measurement": "inhibition in vivo at 10 mg/kg", "setting": "carrageenin oedema", "value": "57.3 ± 0.85", "unit": "%"},
      {"measurement": "inhibition in vivo at 1 mg/kg", "setting": "acetic acid peritonitis; Rattus norvegicus, po, Table 4, os, 1 mg/kg", "value": 74, "unit": "%"},
      {"measurement": "inhibition in vivo at 10 mg/kg", "setting": "acetic acid peritonitis; Rattus norvegicus, po, Table 4, os, 10 mg/kg", "value": 93, "unit": "%"},
      {"measurement": "inhibition in vivo at 0.1 mg/kg", "setting": "acetic acid peritonitis; Rattus norvegicus, po, Table 8, oral, 0.1 mg/kg", "value": 37.2, "unit": "%"},
      {"measurement": "inhibition in vivo at 0.5 mg/kg", "setting": "acetic acid peritonitis; Rattus norvegicus, po, Table 8, oral, 0.5 mg/kg", "value": 53, "unit": "%"},
      {"measurement": "inhibition in vivo at 1 mg/kg", "setting": "acetic acid peritonitis; Rattus norvegicus, po, Table 8, oral, 1 mg/kg", "value": 72.8, "unit": "%"},
      {"measurement": "inhibition in vivo at 10 mg/kg", "setting": "acetic acid peritonitis; Rattus norvegicus, po, Table 8, oral, 10 mg/kg", "value": 94.8, "unit": "%"},
      {"measurement": "ED50", "setting": "acetic acid peritonitis; Rattus norvegicus, oral administration 1 hour before i.p. acetic acid", "value": 0.3, "unit": "mg/kg"},
      {"measurement": "EXUDATE VOLUME ml ± E.S.", "setting": "acetic acid peritonitis; Table 8, oral, 0.1 mg/kg, 1 hour before acetic acid", "value": "1.62 ± 0.09", "unit": "mL"},
      {"measurement": "EXUDATE VOLUME ml ± E.S.", "setting": "acetic acid peritonitis; Table 8, oral, 0.5 mg/kg", "value": "1.21 ± 0.07", "unit": "mL"},
      {"measurement": "EXUDATE VOLUME ml ± E.S.", "setting": "acetic acid peritonitis; Table 8, oral, 1 mg/kg", "value": "0.70 ± 0.09", "unit": "mL"},
      {"measurement": "EXUDATE VOLUME ml ± E.S.", "setting": "acetic acid peritonitis; Table 8, oral, 10 mg/kg", "value": "0.13 ± 0.04", "unit": "mL"},
      {"measurement": "% INHIBITION", "setting": "Carrageenin pleuritis; 5 mg/kg", "value": 51.8, "unit": "%"},
      {"measurement": "EXUDATE VOLUME", "setting": "Carrageenin pleuritis; 5 mg/kg", "value": "1.33 ± 0.34"},
      {"measurement": "% INHIBITION", "setting": "Carrageenin pleuritis; 10 mg/kg", "value": 72.4, "unit": "%"},
      {"measurement": "EXUDATE VOLUME", "setting": "Carrageenin pleuritis; 10 mg/kg", "value": "0.76 ± 0.20"}
    ]}
  ]
}
